Assays:
[1] = test system: HIVmutant10 (16 mutations); experiment: Antiviral assay in MT-4 cells (MTT), mutant 10 virus; assay type: cell-based, HIV; conditions: Human immunodeficiency virus 1, MT4, 120 h, read-out: IC50 Mutant 10
Experimental: (§1) MT-4 cells were obtained from the AIDS Research and Reference Reagent Program (ARRRP, Division of AIDS, NIAID, NIH: MT-4 from Dr. D. Richman). Cells were propagated in RPMI 1640 supplemented with 10% fetal bovine serum, 50U of penicillin and 50 μg of streptomycin per ml (Invitrogen, Carlsbad Calif.). The following HIV viruses were used for testing of antiviral potency of compounds: WT=HIVHXB2; recombinant HIVHXB2 virus from drug resistant patient isolates; HIVmutant10 (16 mutations); HIVmutant8 (14 mutations); HIVmutant9 (10 mutations).
(§2) The potency of test compound was determined as previously described (ref 1-3) with minor modifications. MT-4 cells (1.5×10^4/ml) were exposed to 200 50 % tissue culture infective doses (TCID50) of viruses in the presence of various concentrations of test compound in 96 well microtiter plates and incubated at 37° C. for 5 days. 3-(4,5-dimethylthiazol-2-yl)-2,5-diphenytetrazolium bromide (MTT) solution was added to a final concentration of 0.75 mg/ml, and plates were incubated 1 hour. After incubation cells were dissolved in isopropanol/Triton-X 100/HCl (1000:50:25) solution. Absorbance was monitored in a microplate reader (Spectramax, Molecular Devices) at 540 nm and 690 nm. Cytotoxicity of compounds was tested in a similar assay in the absence of virus.

[2] = test system: HIVmutant9 (10 mutations); experiment: Antiviral assay in MT-4 cells (MTT), mutant 9 virus; assay type: cell-based, HIV; conditions: Human immunodeficiency virus 1, MT4, 120 h, read-out: IC50 Mutant 9
Experimental: as §1, §2

[3] = molecular target: mutant HIV PR (Mutant 8) (Human immunodeficiency virus type 1 group M subtype B, UniProt P04585); experiment: HIV PR inhibition assay, Mutant 8; assay type: biochemical; conditions: read-out: Ki Mutant 8; recombinant mutant HIV PR, fluorogenic substrate, pH 6.5
Experimental: (§3) Expression and purification of WT and mutant HIV PR. Recombinant wild type and mutant HIV PRs were expressed using pET21 vector (Novagen) in E. coli cells, and purified and refolded as described previously (Gulnik et al, 1995). The cells were resuspended in 50 mM tris-HCl buffer, pH 8.0, 25 mM NaCl, 0.2% β-mercaptoethanol (buffer A), sonicated and centrifuged. Inclusion bodies were washed first with buffer A, then with buffer A containing respectively 0.1% Triton X-100, 1 M NaCl, 1 M urea, and finally with buffer A alone. Purified inclusion bodies were solubilized by addition of buffer A containing 8 M urea at room temperature. The solution was clarified by centrifugation and loaded onto 2.6×9.5 cm Q-Sepharose column. Flow-through fractions were collected and dialyzed against 3 changes of refolding buffer, which consists of 25 mM Na-phosphate, pH 7.0, 25 mM NaCl, 0.2% β-mercaptoethanol and 10% glycerol, aliquoted and stored at −80° C.
(§4) Inhibition constants were determined using the fluorogenic substrate ArgGlu(EDANS)[…]DABCYL)Arg (Amichem, USA). HIV Protease was preincubated for 0.5-1 min at ambient temperature on a 96 well plate with different concentrations of inhibitor in 0.05 M sodium phosphate buffer, pH 6.5, containing 20 mM NaCl, 2 mM DTT and 0.01% Tween-20. The reaction was initiated by the addition of substrate. Final enzyme concentration was 2-5 nM for WT and 2-30 nM for mutants. Substrate concentration was 20 uM and DMSO concentration 2%. The increase in fluorescence intensity at the emission maximum of 520 nm (excitation wavelength 340 nm, cut-off filter 495 nm) was monitored as a function of time using a Spectramax Gemini fluorescence plate reader (Molecular Devices, CA USA). The initial rate of hydrolysis was calculated by first-degree polynomial fit using SoftMAX operating software. Data were fitted to the Michaelis-Menten equation for competitive inhibitors. For tight-binding inhibitors the data were fitted by nonlinear regression analysis to the equation V=V0/2Et({[Ki(1+S/Km)+It−Et]^2+4Ki(1+S/Km)Et}^1/2−[Ki(1+S/Km)+It−Et]) (Williams and Morrison, 1979) with the program GraFit, version 5 (Erithacus Software Limited, UK), where V and V0 are initial velocities with and without inhibitor, Km is the Michaelis-Menten constant and S, Et and It are the concentrations of substrate, active enzyme and inhibitor respectively.

[4] = molecular target: mutant HIV PR (Mutant 9) (Human immunodeficiency virus type 1 group M subtype B, UniProt P04585); experiment: HIV PR inhibition assay, Mutant 9; assay type: biochemical; conditions: read-out: Ki Mutant 9; recombinant mutant HIV PR, fluorogenic substrate, pH 6.5
Experimental: as §3, §4

[5] = test system: HIVmutant8 (14 mutations); experiment: Antiviral assay in MT-4 cells (MTT), mutant 8 virus; assay type: cell-based, HIV; conditions: Human immunodeficiency virus 1, MT4, 120 h, read-out: IC50 Mutant 8
Experimental: as §1, §2

[6] = test system: WT=HIVHXB2; experiment: Antiviral assay in MT-4 cells (MTT), WT virus; assay type: cell-based, HIV; conditions: Human immunodeficiency virus 1, MT4, 120 h, HIVHXB2, 5 days
Experimental: as §1, §2

[7] = molecular target: mutant HIV PR (Mutant 10) (Human immunodeficiency virus type 1 group M subtype B, UniProt P04585); experiment: HIV PR inhibition assay, Mutant 10; assay type: biochemical; conditions: read-out: Ki Mutant 10; recombinant mutant HIV PR, fluorogenic substrate, pH 6.5
Experimental: as §3, §4

[8] = molecular target: T1, wild type HIV PR (Human immunodeficiency virus type 1 group M subtype B, UniProt P04585); experiment: HIV PR inhibition assay, wild type; assay type: biochemical
T1 construct: Recombinant wild type and mutant HIV PRs were expressed using pET21 vector (Novagen) in E. coli cells; made in house
Experimental: as §3, §4

Compound	IC50 [1] [µM]	IC50 [2] [µM]	Ki [3] [µM]	Ki [4] [µM]	IC50 [5] [µM]	IC50 [6] [µM]	Ki [7] [µM]	Ki [8] [µM]
CCOC(=O)C(NC=C1C(=O)Nc2ccc(S(=O)(=O)N(CC(C)C)CC(O)C(Cc3ccccc3)NC(=O)OC3COC4OCCC34)cc21)C(C)C (stereo not drawn) [Compound 133]	0.027	0.016	< 0.0003	0.0004	0.019	0.017	0.0031	0.00014
CC(C)CN(C[C@@H](O)[C@H](Cc1ccccc1)NC(=O)O[C@H]1CO[C@H]2OCC[C@H]21)S(=O)(=O)c1ccc2c(c1)/C(=C/N(C)C)C(=O)N2 [Compound 21, {1-Benzyl-3-[(3-dimethylaminomethylene-2-oxo-2,3-dihydro-1H-indole-5-sulfonyl)-isobutyl-amino]-2-hydroxy-propyl}-carbamic acid hexahydro-furo[2,3-b]furan-3-yl ester]	0.07	0.065	< 0.0003	< 0.0001	0.09	0.093	< 0.001	< 0.0001
CC(C)CNC=C1C(=O)Nc2ccc(S(=O)(=O)N(CC(C)C)CC(O)C(Cc3ccccc3)NC(=O)OC3COC4OCCC34)cc21 (stereo not drawn) [Compound 60, (1-Benzyl-2-hydroxy-3-{isobutyl-[3-(isobutylamino-methylene)-2-oxo-2,3-dihydro-1H-indole-5-sulfonyl]-amino}-propyl)-carbamic acid hexahydro-furo[2,3-b]furan-3-yl ester]	0.033	0.0095	< 0.0003	0.00015	0.016	0.0075	< 0.001	< 0.0001
CC(C)CC(C)NC=C1C(=O)Nc2ccc(S(=O)(=O)N(CC(C)C)CC(O)C(Cc3ccccc3)NC(=O)OC3COC4OCCC34)cc21 (stereo not drawn) [Compound 104]	0.074	0.016	< 0.0003	0.00025	0.033	0.007	0.0013	0.00017
CC(C)CN(CC(O)C(Cc1ccccc1)NC(=O)OC1COC2OCCC12)S(=O)(=O)c1ccc2c(c1)C(=CNCC(F)(F)C(F)(F)C(F)(F)F)C(=O)N2 (stereo not drawn) [Compound 125]	0.039	0.024	< 0.0003	0.00017	0.037	0.014	0.0012	< 0.0001
CC(C)CN(CC(O)C(Cc1ccccc1)NC(=O)OC1COC2OCCC12)S(=O)(=O)c1ccc2c(c1)C(=CNCc1ccc3ccccc3n1)C(=O)N2 (stereo not drawn) [Compound 130]	0.027	0.023	< 0.0003	< 0.0001		0.032	< 0.001	0.0001
CC(C)CCNC=C1C(=O)Nc2ccc(S(=O)(=O)N(CC(C)C)CC(O)C(Cc3ccccc3)NC(=O)OC3COC4OCCC34)cc21 (stereo not drawn) [Compound 66, [1-Benzyl-2-hydroxy-3-(isobutyl-{3-[(3-methyl-butylamino)-methylene]-2-oxo-2,3-dihydro-1H-indole-5-sulfonyl}-amino)-propyl]-carbamic acid hexahydro-furo[2,3-b]furan-3-yl ester]	0.039		< 0.0003	< 0.0001	0.026	0.012	< 0.001	< 0.0001

— patent US7807845B2, “Resistance-repellent retroviral protease inhibitors” (priority 2004, dated 2010)
